# Results published in the supplement of paper PMC6315032.
# Tests used:
# Assay in all cases: apparent dissociation constant (pKDapp, Kinobeads competition, Cheng-Prusoff corrected) (-log10 M); higher = tighter binding
# Settings in all cases: affinity matrix / lysate: Kinobeads, mixed HEK293/K-562/placenta lysate
# [1] = target: PRKCQ (UniProt Q04759)
# [2] = target: CDC2L5 (UniProt Q14004)
# [3] = target: PRKAA1 (UniProt Q13131)
# [4] = target: MAPK11 (UniProt Q15759)
# [5] = target: LOC100128443
# [6] = target: PIM1 (UniProt P11309)
# [7] = target: EPHB3 (UniProt P54753)
# [8] = target: SGK3 (UniProt Q96BR1)
# [9] = target: NEK6 (UniProt Q9HC98)
# [10] = target: RPS6KB1 (UniProt P23443)
# [11] = target: HCK (UniProt P08631)
# [12] = target: MAP4K2 (UniProt Q12851)
# [13] = target: MAP3K7 (UniProt O43318)
# [14] = target: CIT (UniProt O14578)
# [15] = target: LIMK2 (UniProt P53671)
# [16] = target: INSR (UniProt P06213)
# [17] = target: GSK3A (UniProt P49840)
# [18] = target: BMX (UniProt P51813)
# [19] = target: MAP3K15 (UniProt Q6ZN16)
# [20] = target: ZAK (UniProt Q9NYL2)
# [21] = target: TYRO3 (UniProt Q06418)
# [22] = target: MAP4K3 (UniProt Q8IVH8)
# [23] = target: PTK2B (UniProt Q14289)
# [24] = target: FGFR3 (UniProt P22607)
# [25] = target: MAPK6 (UniProt Q16659)
# [26] = target: MAP4K4 (UniProt O95819)
# [27] = target: TTK (UniProt P33981)
# [28] = target: CDC42BPB (UniProt Q9Y5S2)
# [29] = target: WEE1 (UniProt P30291)
# [30] = target: ABL2 (UniProt P42684)
# [31] = target: BMPR1B (UniProt O00238)
# [32] = target: CHEK2 (UniProt O96017)
# [33] = target: EPHA2 (UniProt P29317)
# [34] = target: MAP2K5 (UniProt Q13163)
apparent dissociation constant (-log10 M) [1],apparent dissociation constant (-log10 M) [2],apparent dissociation constant (-log10 M) [3],apparent dissociation constant (-log10 M) [4],apparent dissociation constant (-log10 M) [5],apparent dissociation constant (-log10 M) [6],apparent dissociation constant (-log10 M) [7],apparent dissociation constant (-log10 M) [8],apparent dissociation constant (-log10 M) [9],apparent dissociation constant (-log10 M) [10],apparent dissociation constant (-log10 M) [11],apparent dissociation constant (-log10 M) [12],apparent dissociation constant (-log10 M) [13],apparent dissociation constant (-log10 M) [14],apparent dissociation constant (-log10 M) [15],apparent dissociation constant (-log10 M) [16],apparent dissociation constant (-log10 M) [17],apparent dissociation constant (-log10 M) [18],apparent dissociation constant (-log10 M) [19],apparent dissociation constant (-log10 M) [20],apparent dissociation constant (-log10 M) [21],apparent dissociation constant (-log10 M) [22],apparent dissociation constant (-log10 M) [23],apparent dissociation constant (-log10 M) [24],apparent dissociation constant (-log10 M) [25],apparent dissociation constant (-log10 M) [26],apparent dissociation constant (-log10 M) [27],apparent dissociation constant (-log10 M) [28],apparent dissociation constant (-log10 M) [29],apparent dissociation constant (-log10 M) [30],apparent dissociation constant (-log10 M) [31],apparent dissociation constant (-log10 M) [32],apparent dissociation constant (-log10 M) [33],apparent dissociation constant (-log10 M) [34],SMILES
< 6,< 6,< 6,< 6,< 6,< 6,< 6,< 6,< 6,< 6,< 6,< 6,< 6,< 6,< 6,< 6,< 6,< 6,< 6,< 6,< 6,< 6,< 6,< 6,< 6,< 6,< 6,< 6,< 6,< 6,< 6,< 6,< 6,< 6,COc1ccc(-c2ccc3c(N4CCOC[C@@H]4C)nc(N4CCOC[C@@H]4C)nc3n2)cc1CO [AZD8055]
< 6,< 6,< 6,< 6,< 6,< 6,< 6,< 6,< 6,< 6,< 6,< 6,< 6,< 6,< 6,< 6,< 6,< 6,< 6,< 6,< 6,< 6,< 6,< 6,< 6,< 6,< 6,< 6,< 6,< 6,< 6,< 6,< 6,< 6,CCNC(=O)Nc1ccc(-c2nc(N3CCOC[C@@H]3C)c3c(n2)C(C)(C)S(=O)(=O)C3)cc1 [CZ415]
